# Biological target: T1, protein-protein interaction between SOS1 and KRAS G12C (Homo sapiens, UniProt P01116, C118S/C51S/C80L/G12C)
# T1 construct: His6 (N); SOS1: in-house or Viva Biotech Ltd; host or cells: E. coli (KRAS)
# Assay: KRAS::SOS1 AlphaScreen Binding Assay
# Conditions: Table 19, intermediates C-3/C-4; 7.5 nM KRAS G12C, 10 μM GDP, 5 nM GST-SOS1; read-out: IC50 G12C::SOS 1
# Description: This assay can be used to examine the potency with which compounds according to the invention binding to KRAS G12C inhibit the protein-protein interaction between SOS1 and KRAS G12C. […] Low IC50 values in this assay setting are indicative of strong inhibition of protein-protein interaction between SOS1 and KRAS:
# • GST-tagged SOS1 (564_1049_GST_TEV_ECO) produced in-house • GST-TEV-SOS1 (564-1049) is purchased from Viva Biotech Ltd. • The expression construct of KRAS G12C (amino acids 1-169 of reference sequence P01116-2 (uniprot), with additional mutations: C51S, C80L, and C118S) containing a C-terminal avi-tag was obtained by gene synthesis (GeneArt, Thermo Fisher) in donor vector (pDONR-221) and transferred by recombinant cloning into pDEST17 vector bearing an N-terminal His6-tag. The protein was expressed in E. coli and the purified protein was biotinylated with the E. coli biotin ligase (BirA) before usage. • GDP (Sigma Cat No G7127) • AlphaLISA Glutathione Acceptor Beads (PerkinElmer, Cat No AL109) • AlphaScreen Streptavidin Donor Beads (PerkinElmer Cat No 6760002) • Assay plates: Proxiplate-384 PLUS, white (PerkinElmer, Cat No 6008289)
# 7.5 nM (final assay concentration) KRAS G12C, 10 μM (final assay concentration) GDP and 5 nM (final assay concentration) GST-SOS1 are mixed in assay buffer prior to use and kept at room temperature.
# AlphaLISA Glutathione Acceptor Beads and AlphaScreen Streptavidin Donor Beads are mixed in assay buffer at a concentration of 10 μg/mL (final assay concentration) each prior to use and kept at room temperature.
# Compounds are diluted to a final start concentration of 100 μM and are tested in duplicate. Assay-ready plates (ARPs) are generated using an Access Labcyte Workstation with a Labcyte Echo 550 or 555 acoustic dispenser. For compound a start concentration of 100 μM, 150 nL of compound solution is transferred per well in 11 concentrations in duplicate with serial 1:5 dilutions.
# The assay is run using a fully automated robotic system in a darkened room below 100 Lux. 10 μL of KRAS::SOS1 GDP mix is added into columns 1-24 to the 150 nL of compound solution (final dilution in the assay 1:100, final DMSO concentration 1%).
# After 30 minutes incubation time 5 μL of bead mix is added into columns 1-23. Plates are kept at room temperature in a darkened incubator. After further 60 minutes incubation, the signal is measured using a PerkinElmer Envision HTS Multilabel Reader using the AlphaScreen specifications from PerkinElmer. Each plate contains the following controls: • diluted DMSO+KRAS::SOS1 GDP mix+bead mix • diluted DMSO+KRAS::SOS1 GDP mix
# IC50 values are calculated and analyzed using a 4 parametric logistic model.
# Tables of example compounds disclosed herein contain IC50 values determined using the above assay.
# T1 sequence (P01116 1-169 isoform P01116-2 G12C/C51S/C80L/C118S): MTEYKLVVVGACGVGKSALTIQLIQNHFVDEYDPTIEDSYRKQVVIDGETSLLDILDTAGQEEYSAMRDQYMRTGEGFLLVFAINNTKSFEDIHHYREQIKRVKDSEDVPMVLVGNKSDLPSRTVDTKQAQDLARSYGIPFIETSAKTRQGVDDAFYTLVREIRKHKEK
row,IC50 [nM],Structure (SMILES)
1,4.6,C[C@H](Oc1cc(N2C[C@H](C)N[C@@H](C)C2)nc(-c2onc3c2CCC[C@@]32CCCc3sc(N)c(C#N)c32)n1)[C@@H]1CCCN1C [C-3a]
2,2.5,C[C@H](Oc1cc(N2CCNC3(CC3)C2)nc(-c2onc3c2CCC[C@@]32CCCc3sc(N)c(C#N)c32)n1)[C@@H]1CCCN1C [C-3b]
3,4.1,C[C@H](Oc1cc(N2C[C@H](C)NC3(CC3)C2)nc(-c2onc3c2CCC[C@@]32CCCc3sc(N)c(C#N)c32)n1)[C@@H]1CCCN1C [C-3d]
4,45,C[C@H](Oc1nc(-c2onc3c2CCC[C@@]32CCCc3sc(N)c(C#N)c32)cc(N2CCNC3(CC3)C2)n1)[C@@H]1CCCN1C [C-3e]
5,2.4,C[C@H](Oc1cc(N2C[C@H](C)N[C@@H](C)C2)nc(-c2noc3c2CCC[C@@]32CCCc3sc(N)c(C#N)c32)n1)[C@@H]1CCCN1C [C-4a]
6,1.9,C[C@H](Oc1cc(N2CCNC3(CC3)C2)nc(-c2noc3c2CCC[C@@]32CCCc3sc(N)c(C#N)c32)n1)[C@@H]1CCCN1C [C-4b]
7,37,C[C@H](Oc1nc(-c2noc3c2CCC[C@@]32CCCc3sc(N)c(C#N)c32)cc(N2C[C@H](C)N[C@@H](C)C2)n1)[C@@H]1CCCN1C [C-4c]
8,3.2,C[C@H](Oc1cc(N2CCNCC2)nc(-c2noc3c2CCC[C@@]32CCCc3sc(N)c(C#N)c32)n1)[C@@H]1CCCN1C [C-4d]
9,9,CNC1CCN(c2cc(O[C@@H](C)[C@@H]3CCCN3C)nc(-c3noc4c3CCC[C@@]43CCCc4sc(N)c(C#N)c43)n2)CC1 [C-4e]
